# In patent US11390631B1, “Benzodiazepine derivatives as RSV inhibitors” (priority 2015, dated 2022):
# Experiments:
# [1] = tested on: Human RSV-A (“Long” strain); experiment: RSV-A assay: inhibition of cytopathic effect in Hep-2 cells, ATPlite readout; type: cell-based, Human respiratory syncytial virus (HRSV); conditions: human respiratory syncytial virus, HEp-2, 120 h, read-out: Human RSV-A (“Long” strain) EC50
# How it was run: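 Cytopathic-effect protection was read as ATP content (ATPlite luminescence) after a 5-day incubation. Setup: Hep-2 cells at 8,000 per well, RSV-A Long at MOI 0.1, 2-fold serial compound dilutions in duplicate. Cytotoxicity (CC50) was measured on an identical uninfected plate run in parallel.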
# [2] = Cytotoxicity on parallel plate without virus, ATPlite readout; type: cell-based; conditions: human, Hep-2 cells (no virus), Hep-2 cells without virus, 5-day incubation
# Experimental: Following extensive parameter testing, the final assay is run as follows: Hep-2 cells are seeded into the inner 60 wells of a 96-well plate at 8,000 cells per well in a volume of 50 μL using Growth Media (DMEM without phenol red, 1% L-Glut, 1% Penn/Strep, 1% nonessential amino acids, 10% heat-inactivated FBS). 2-fold serial dilutions of control and test compounds are added to the wells in duplicate in a total volume of 25 μL. Viral stock is then added to the wells at a multiplicity of infection (MOI) of 0.1 in a volume of 25 μL, bringing the total volume of each well to 100 μL. The MOI is calculated using the PFU/mL, or TCID50 if unavailable. Each 96-well plate has a control column of 6 wells with cells and virus but no compound (negative control, max CPE), a column with cells but no compound or virus (positive control, minimum CPE), and a column with no cells or virus or compound (background plate/reagent control). The control wells with cells but no virus are given an additional 25 uL of growth media containing an equal quantity of sucrose as those wells receiving the viral stock in order to keep consistent in media and volume conditions. The outer wells of the plate are filled with 125 μL of moat media (DMEM, 1% Penn/Strep) to act as a thermal and evaporative moat around the test wells. Following a 5-day incubation period, the plates are read using ATPlite (50 uL added per well), which quantifies the amount of ATP (a measure of cell health) present in each well. Assay plates are read using the Envision luminometer. In parallel, cytotoxicity is examined on an additional 96-well plate treated in an identical manner, but substituting the 25 μL of viral stock for 25 μL of growth media. […] EC50 ranges are as follows: A<0.4 μM; B 0.4-0.8 μM; C>0.8 μM and CC50 ranges are as follows: A>50 μM; B 10-50 μM; C<10 μM.
SMILES,EC50 [1] [nM],CC50 at 5 days [2] [nM]
O=C1Nc2ccccc2C(c2ccccc2)=NC1Nc1nnc(-c2ncccn2)o1 (stereo not shown) [Example 59],> 800,> 50000
O=C1Nc2ccccc2C(c2ccccc2)=NC1Nc1nnc(C2CC2)o1 (stereo not shown) [Example 5],> 800,> 50000
O=C1Nc2ccccc2C(c2ccccc2)=NC1Nc1nnc(-c2cccc3ccccc23)o1 (stereo not shown) [Example 17],> 800,> 50000
O=C1Nc2ccccc2C(c2ccccc2)=NC1Nc1nc2ccccc2s1 (stereo not shown) [Example 101],> 800,10000 to 50000
O=C1Nc2ccccc2C(c2ccccc2)=NC1Nc1nnc(-c2ccc(F)cc2F)o1 (stereo not shown) [Example 50],> 800,> 50000
O=C1Nc2ccccc2C(c2ccccc2)=NC1Nc1nnc(-c2ccccc2)o1 (stereo not shown) [Example 2],> 800,> 50000
O=C1Nc2ccccc2C(c2ccccc2)=NC1Nc1nnc(-c2ccc(Cl)cc2)o1 (stereo not shown) [Example 13],< 400,> 50000
O=C1Nc2ccccc2C(c2ccccc2)=NC1Nc1nc(-c2ccccc2)no1 (stereo not shown) [Example 89],> 800,10000 to 50000
CC(=O)N1CCC(c2nnc(NC3N=C(c4ccccc4)c4ccccc4NC3=O)o2)CC1 (stereo not shown) [Example 47],> 800,> 50000
CS(=O)(=O)c1ccc(-c2nnc(NC3N=C(c4ccccc4)c4ccccc4NC3=O)o2)cc1 (stereo not shown) [Example 27],> 800,> 50000
O=C1Nc2ccccc2C(c2ccccc2)=NC1Nc1cccn(Cc2ccccc2)c1=O (stereo not shown) [Example 97],> 800,> 50000
O=C1Nc2ccccc2C(c2ccccc2)=NC1Nc1nnc(-c2cccnc2)o1 (stereo not shown) [Example 37],> 800,> 50000
COc1ccnc(-c2nnc(NC3N=C(c4ccccc4)c4ccccc4NC3=O)o2)c1 (stereo not shown) [Example 57],> 800,> 50000
O=C1Nc2ccccc2C(c2ccccc2)=NC1Nc1cc(Oc2ccccc2)ncn1 (stereo not shown) [Example 94],> 800,10000 to 50000
COc1cccc(-c2nnc(NC3N=C(c4ccccc4)c4ccccc4NC3=O)o2)n1 (stereo not shown) [Example 52],< 400,> 50000
COc1ccc(-c2nnc(NC3N=C(c4ccccc4)c4ccccc4NC3=O)o2)cc1 (stereo not shown) [Example 8],> 800,> 50000
O=C1Nc2ccccc2C(c2ccccc2)=NC1Nc1nnc(-c2cc3cccnc3s2)o1 (stereo not shown) [Example 43],> 800,> 50000
COc1ccc(-c2nnc(NC3N=C(c4ccccc4)c4ccccc4NC3=O)o2)cn1 (stereo not shown) [Example 54],< 400,> 50000
N#Cc1ccc(-c2nnc(NC3N=C(c4ccccc4)c4ccccc4NC3=O)s2)cc1 (stereo not shown) [Example 82],400 to 800,> 50000
O=C1Nc2ccccc2C(c2ccccc2)=NC1Nc1nnc(-c2ccc(F)nc2)o1 (stereo not shown) [Example 53],400 to 800,> 50000

SMILES,EC50 [1] [nM],CC50 at 5 days [2] [nM]
COCCOc1cccc(-c2nnc(NC3N=C(c4ccccc4)c4ccccc4NC3=O)o2)c1 (stereo not shown) [Example 1],> 800,> 50000
CNc1cc(C(F)(F)F)cnc1-c1nnc(N[C@H]2N=C(c3ccccc3)c3ccccc3NC2=O)o1 [Example 307],> 800,–
C[C@@H]1COCCN1c1cc(C#N)ccc1-c1nnc(N[C@H]2N=C(c3ccccc3)c3ccccc3NC2=O)o1 [Example 285],< 400,–
O=C1Nc2ccccc2C(c2ccccc2)=N[C@@H]1Nc1nnc(-c2ccc(N3CCCC3)cc2N2CCOCC2)o1 [Example 317],< 400,–
O=C1Nc2ccccc2C(c2ccccc2)=NC1Nc1nnc(-c2cccc(F)c2N2CCOCC2)o1 (stereo not shown) [Example 148],> 800,–
O=C1Nc2ccccc2C(c2ccccc2)=NC1Nc1nnc(C2CCC2)o1 (stereo not shown) [Example 196],> 800,–
"O=C1Nc2ccccc2C(c2ccccc2)=NC1Nc1nnc(-c2ccccc2C2=CCOCC2)o1 (stereo not shown) [Example 353, 3-((5-(2-(3,6-dihydro-2H-pyran-4-yl)phenyl)-1,3,4-oxadiazol-2-yl)amino)-5-phenyl-1,3-dihydro-2H-benzo[e][1,4]diazepin-2-one]",> 800,–
COC[C@H]1CCCN1c1sc(C(F)(F)F)nc1-c1nnc(N[C@H]2N=C(c3ccccc3)c3ccccc3NC2=O)o1 [Example 456],> 800,–
Cc1nc(-c2nnc(N[C@H]3N=C(c4ccccc4)c4ccccc4NC3=O)o2)c(Cl)s1 [Example 344],> 800,–
Cc1ccc(-c2nnc(N[C@H]3N=C(c4ccccc4)c4ccccc4NC3=O)o2)c(N2C3CCC2COC3)n1 [Example 280],< 400,–
Cc1ccc(-c2nnc(N[C@H]3N=C(c4ccccc4)c4ccccc4NC3=O)o2)c(N2CCOC[C@H]2C)n1 [Example 286],< 400,–
O=C1Nc2ccccc2C(c2ccccc2)=N[C@@H]1Nc1nnc(-c2cccnc2N2CCn3ncnc3C2)o1 [Example 270],> 800,–
C[C@@H]1COCCN1c1cc(C#N)cnc1-c1nnc(N[C@H]2N=C(c3ccccc3)c3ccccc3NC2=O)o1 [Example 301],< 400,–
CC1(c2nc(-c3nnc(N[C@H]4N=C(c5ccccc5)c5ccccc5NC4=O)o3)c(N3CCOCC3)s2)CCC1 [Example 478],< 400,–
CN(C)c1cc(C(F)(F)F)cnc1-c1nnc(N[C@H]2N=C(c3ccccc3)c3ccccc3NC2=O)o1 [Example 302],> 800,–
CC1(C)CC(c2nnc(NC3N=C(c4ccccc4)c4ccccc4NC3=O)o2)C1 (stereo not shown) [Example 206],> 800,–
O=C1Nc2c(Cl)cccc2C(c2ccccc2)=NC1Nc1nnc(-c2ccccc2N2CCOCC2)o1 (stereo not shown) [Example 362],> 800,–
O=C1Nc2ccccc2C(c2ccccc2)=N[C@@H]1Nc1nnc(-c2ccc(N3C4CCC3COC4)cc2Cl)o1 [Example 244],> 800,–
O=C1Nc2ccccc2C(c2ccccc2)=N[C@@H]1Nc1nnc(-c2cnc(N3CCOCC3)cn2)o1 [Example 161],> 800,–
O=C1Nc2ccccc2C(c2ccccc2)=N[C@@H]1Nc1nnc(-c2oc3cccc(F)c3c2N2CCOCC2)o1 [Example 477],< 400,–

SMILES,EC50 [1] [nM],CC50 at 5 days [2] [nM]
O=C1Nc2ccccc2C(c2ccccc2)=N[C@@H]1Nc1nnc(-c2ncc(C(F)(F)F)cc2N2CCOC(C(F)(F)F)C2)o1 (mixture of isomers) [Example 467],< 400,–
Cc1ccc(-c2nnc(N[C@H]3N=C(c4ccccc4)c4ccccc4NC3=O)o2)c(N2CC3CCC(C2)O3)n1 [Example 279],< 400,–
"Cc1nc(-c2nnc(N[C@H]3N=C(c4ccccc4)c4ccccc4NC3=O)o2)c(C2=CCOCC2)s1 [Example 345, (S)-3-((5-(5-(3,6-dihydro-2H-pyran-4-yl)-2-methylthiazol-4-yl)-1,3,4-oxadiazol-2-yl)amino)-5-phenyl-1,3-dihydro-2H-benzo[e][1,4]diazepin-2-one]",< 400,–
N#Cc1cnc(-c2nnc(N[C@H]3N=C(c4ccccc4)c4ccccc4NC3=O)o2)c(N2C3CCC2COC3)c1 [Example 333],400 to 800,–
O=C1Nc2ccccc2C(c2ccccc2)=N[C@@H]1Nc1nnc(-c2ccnn2-c2ccccc2)o1 [Example 349],> 800,–
C#Cc1nc(-c2nnc(N[C@H]3N=C(c4ccccc4)c4ccccc4NC3=O)o2)c(N2CCOCC2)s1 [Example 406],< 400,–
CC1(C)C[C@@H]1c1nnc(NC2N=C(c3ccccc3)c3ccccc3NC2=O)o1 (stereo partly shown) [Example 205],> 800,–
O=C1Nc2ccccc2C(c2ccccc2)=N[C@@H]1Nc1nnc(-c2nc3ccccc3nc2N2CCOCC2)o1 [Example 433],< 400,–
O=C1Nc2ccccc2C(c2ccccc2)=NC1Nc1nnc(-c2cccnc2N2CC3CCC(C2)O3)o1 (stereo not shown) [Example 266],400 to 800,–
O=C1Nc2ccccc2C(c2ccccc2)=NC1Nc1nnc(C23CCN(CC2)CC3)o1 (stereo not shown) [Example 287],> 800,–
O=C1Nc2ccccc2C(c2ccccc2)=N[C@@H]1Nc1nnc(-c2oc3ncccc3c2N2CCOCC2)o1 [Example 404],< 400,–
Cc1cc(-c2nnc(N[C@H]3N=C(c4ccccc4)c4ccccc4NC3=O)o2)c(N2CCOCC2)s1 [Example 330],< 400,–
CCOC(=O)c1nnc(NC2N=C(c3ccccc3)c3ccccc3NC2=O)o1 (stereo not shown) [Example 78],> 800,–
O=C1Nc2ccccc2C(c2ccccc2)=NC1Nc1noc(-c2ccccc2)n1 (stereo not shown) [Example 91],> 800,–
N#Cc1cccc(C2=NC(Nc3nnc(-c4ccc(F)cc4)o3)C(=O)Nc3ccccc32)c1 (stereo not shown) [Example 381],> 800,–
COc1ccc(-c2nnc(N[C@H]3N=C(c4ccccc4)c4ccccc4NC3=O)o2)c(N2CCOCC2)n1 [Example 295],< 400,–
COCCN(C)c1ccc(-c2nnc(NC3N=C(c4ccccc4)c4ccccc4NC3=O)o2)cc1 (stereo not shown) [Example 118],> 800,–
CN1C(=O)C(Nc2nnc(-c3ccc(F)cc3)o2)N=C(c2ccccc2)c2ccccc21 (stereo not shown) [Example 201],> 800,–
